Values of other authors as cited in US20140303227A1, “TRANSMUCOSAL HORMONE DELIVERY SYSTEM” (Pharmaceutical Productions Inc., priority 2013, published 2014).

Details: pH 6.8

Q: With `CN1CCCC1c1cccnc1` (stereo not shown) [nicotine] as the molecule, how does the “nicotine in the free base form” value read?
A: about 10%
